Patent US20260193268A1, “TRICYCLIC PI3Ka INHIBITOR, PREPARATION METHOD THEREFOR, AND PHARMACEUTICAL USE THEREOF” (WIGEN BIOMEDICINE TECHNOLOGY (SHANGHAI) CO., LTD., priority 2022, published 2026)

Legend:
[1] = tested on: MCF-7 cells (with PI3Kα E545K mutation); experiment: In vitro inhibition of MCF-7 cell proliferation (CellTiter-Lumi); type: cell-based; conditions: Homo sapiens, MCF7, 144 h, class symbols, read-out: Inhibitory activity against MCF-7 cells (IC50), class symbols
Procedure, shortened: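 Growth IC50 derived from ATP luminescence (CellTiter-Lumi) after 144 h exposure of MCF-7 cells carrying PI3Kα E545K, plated 2000 cells/well and dosed with serial dilutions one day after seeding.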

[2] = tested on: HCC1954 cells (with PI3Kα H1047R mutation); experiment: In vitro inhibition of HCC1954 cell proliferation (CellTiter-Lumi); type: cell-based; conditions: Homo sapiens, HCC1954, 144 h, HCC1954 cells, 144 h, CellTiter-Lumi; class symbols; read-out: Inhibitory activity against HCC1954 cells (IC50), class symbols
Protocol: Assay for In Vitro Inhibition of HCC1954 Cell Proliferation by Compounds of the Present Disclosure
The growth of the cells was evaluated, and the IC50 for the inhibition of cell growth by the compounds was calculated.

Row | SMILES | IC50 [1] [nM] | IC50 [2] [nM]
1 | C=CC(=O)Nc1ccc(N2CC(N3CCN(c4ccc5c(c4)-c4nc(N6C(=O)OC[C@H]6C(F)F)cn4CCO5)CC3)C2)nc1C [Compound 216] | < 50 | < 50
2 | C=CC(=O)Nc1cnc(N2CC(N3CCN(c4ccc5c(c4)-c4nc(N6C(=O)OC[C@H]6C(F)F)cn4CCO5)CC3)C2)cc1C [Compound 217] | < 50 | < 50
3 | CN(C1COC1)C(C)(C)C=C(C#N)C(=O)Nc1ccc(N2CC(N3CCN(c4ccc5c(c4)-c4nc(N6C(=O)OC[C@H]6C(F)F)cn4CCO5)CC3)C2)c(F)c1 [Compound 220] | < 50 | < 50
4 | CC(C)(C=C(C#N)C(=O)Nc1ccc(N2CC(N3CCN(c4ccc5c(c4)-c4nc(N6C(=O)OC[C@H]6C(F)F)cn4CCO5)CC3)C2)c(F)c1)NC1COC1 [Compound 221] | < 50 | < 50
5 | CC(C)(C=C(C#N)C(=O)Nc1ccc(N2CC(N3CCN(c4ccc5c(c4)-c4nc(N6C(=O)OC[C@H]6C(F)F)cn4CCO5)CC3)C2)c(F)c1)N1CCOCC1 [Compound 222] | < 50 | < 50
6 | CC(C)C=C(C#N)C(=O)Nc1ccc(N2CC(N3CCN(c4ccc5c(c4)-c4nc(N6C(=O)OC[C@H]6C(F)F)cn4CCO5)CC3)C2)c(F)c1 [Compound 226] | < 50 | < 50
7 | N#CC(=CC1CC1)C(=O)Nc1ccc(N2CC(N3CCN(c4ccc5c(c4)-c4nc(N6C(=O)OC[C@H]6C(F)F)cn4CCO5)CC3)C2)c(F)c1 [Compound 227] | < 50 | < 50
8 | CC(C)(C=C(C#N)C(=O)Nc1ccc(N2CC(N3CCN(c4ccc5c(c4)-c4nc(N6C(=O)OC[C@H]6C(F)F)cn4CCO5)CC3)C2)c(F)c1)N1CC2(COC2)C1 [Compound 228] | < 50 | < 50
9 | CC(C)(C=C(C#N)C(=O)Nc1ccc(N2CC(N3CCN(c4ccc5c(c4)-c4nc(N6C(=O)OC[C@H]6C(F)F)cn4CCO5)CC3)C2)c(F)c1)N1CCC1 [Compound 229] | < 50 | < 50
10 | COC(C)(C)C=C(C#N)C(=O)Nc1ccc(N2CC(N3CCN(c4ccc5c(c4)-c4nc(N6C(=O)OC[C@H]6C(F)F)cn4CCO5)CC3)C2)c(F)c1 [Compound 231] | < 50 | < 50
11 | COCCNC(C)(C)C=C(C#N)C(=O)Nc1ccc(N2CC(N3CCN(c4ccc5c(c4)-c4nc(N6C(=O)OC[C@H]6C(F)F)cn4CCO5)CC3)C2)c(F)c1 [Compound 232] | < 50 | < 50
12 | CC1(C=C(C#N)C(=O)Nc2ccc(N3CC(N4CCN(c5ccc6c(c5)-c5nc(N7C(=O)OC[C@H]7C(F)F)cn5CCO6)CC4)C3)c(F)c2)COC1 [Compound 233] | < 50 | < 50
13 | N#CC(=CC1CCCN1)C(=O)Nc1ccc(N2CC(N3CCN(c4ccc5c(c4)-c4nc(N6C(=O)OC[C@H]6C(F)F)cn4CCO5)CC3)C2)c(F)c1 (some centres unmarked) [Compound 234] | < 50 | < 50
14 | N#CC(=CC1(N)CC1)C(=O)Nc1ccc(N2CC(N3CCN(c4ccc5c(c4)-c4nc(N6C(=O)OC[C@H]6C(F)F)cn4CCO5)CC3)C2)c(F)c1 [Compound 235] | < 50 | < 50
15 | CC=C(C#N)C(=O)Nc1ccc(N2CC(N3CCN(c4ccc5c(c4)-c4nc(N6C(=O)OC[C@H]6C(F)F)cn4CCO5)CC3)C2)c(F)c1 [Compound 236] | < 50 | < 50
16 | CNC1(C=C(C#N)C(=O)Nc2ccc(N3CC(N4CCN(c5ccc6c(c5)-c5nc(N7C(=O)OC[C@H]7C(F)F)cn5CCO6)CC4)C3)c(F)c2)CC1 [Compound 237] | < 50 | < 50
17 | CN(C1COC1)C(C)(C)C=C(C#N)C(=O)Nc1ccc(N2CC(N3CCN(c4ccc5c(c4)-c4nc(N6C(=O)OC[C@H]6C(F)F)cn4CCO5)CC3)C2)nc1 [Compound 238] | < 50 | < 50
18 | CC(C)(C=C(C#N)C(=O)Nc1ccc(N2CC(N3CCN(c4ccc5c(c4)-c4nc(N6C(=O)OC[C@H]6C(F)F)cn4CCO5)CC3)C2)nc1)N1CCOCC1 [Compound 240] | < 50 | < 50
19 | CC(C)C=C(C#N)C(=O)Nc1ccc(N2CC(N3CCN(c4ccc5c(c4)-c4nc(N6C(=O)OC[C@H]6C(F)F)cn4CCO5)CC3)C2)nc1 [Compound 244] | < 50 | < 50
20 | N#CC(=CC1CC1)C(=O)Nc1ccc(N2CC(N3CCN(c4ccc5c(c4)-c4nc(N6C(=O)OC[C@H]6C(F)F)cn4CCO5)CC3)C2)nc1 [Compound 245] | < 50 | < 50

Continued, values first:

Row | IC50 [1] [nM] | IC50 [2] [nM] | SMILES
21 | < 50 | < 50 | COC(C)(C)C=C(C#N)C(=O)Nc1ccc(N2CC(N3CCN(c4ccc5c(c4)-c4nc(N6C(=O)OC[C@H]6C(F)F)cn4CCO5)CC3)C2)cc1 [Compound 212]
22 | < 50 | < 50 | N#CC(=CC1(N)CC1)C(=O)Nc1ccc(N2CC(N3CCN(c4ccc5c(c4)-c4nc(N6C(=O)OC[C@H]6C(F)F)cn4CCO5)CC3)C2)cc1 [Compound 213]
23 | < 50 | < 50 | N#CC(=CC1CCCN1)C(=O)Nc1ccc(N2CC(N3CCN(c4ccc5c(c4)-c4nc(N6C(=O)OC[C@H]6C(F)F)cn4CCO5)CC3)C2)cc1 (some centres unmarked) [Compound 214]
24 | < 50 | < 50 | CNC(C)(C)C=C(C#N)C(=O)Nc1ccc(N2CCC(N3CCN(c4ccc5c(c4)-c4nc(N6C(=O)OCC6C(F)F)cn4CCO5)CC3)C2)cc1 (centres unmarked) [Compound 215]
25 | < 50 | < 50 | COCCNC(C)(C)C=C(C#N)C(=O)Nc1ccc(N2CC(N3CCN(c4ccc5c(c4)-c4nc(N6C(=O)OC[C@H]6C(F)F)cn4CCO5)CC3)C2)cc1 [Compound 218]
26 | < 50 | < 50 | CNC(C)(C)C=C(C#N)C(=O)Nc1cc(N2CC(N3CCN(c4ccc5c(c4)-c4nc(N6C(=O)OC[C@H]6C(F)F)cn4CCO5)CC3)C2)n(C)n1 [Compound 219]
27 | < 50 | < 50 | CC(C)(C)C=C(C#N)C(=O)Nc1ccc(N2CC(N3CCN(c4ccc5c(c4)-c4nc(N6C(=O)OC[C@H]6C(F)F)cn4CCO5)CC3)C2)c(F)c1 [Compound 223]
28 | < 50 | < 50 | CC(C)(N)C=C(C#N)C(=O)Nc1ccc(N2CC(N3CCN(c4ccc5c(c4)-c4nc(N6C(=O)OC[C@H]6C(F)F)cn4CCO5)CC3)C2)c(F)c1 [Compound 224]
29 | < 50 | < 50 | CNC(C)(C)C=C(C#N)C(=O)Nc1ccc(N2CC(N3CCN(c4ccc5c(c4)-c4nc(N6C(=O)OC[C@H]6C(F)F)cn4CCO5)CC3)C2)c(F)c1 [Compound 225]
30 | < 50 | < 50 | CC(C)(O)C=C(C#N)C(=O)Nc1ccc(N2CC(N3CCN(c4ccc5c(c4)-c4nc(N6C(=O)OC[C@H]6C(F)F)cn4CCO5)CC3)C2)c(F)c1 [Compound 230]
31 | < 50 | < 50 | CC(C)(C=C(C#N)C(=O)Nc1ccc(N2CC(N3CCN(c4ccc5c(c4)-c4nc(N6C(=O)OC[C@H]6C(F)F)cn4CCO5)CC3)C2)nc1)NC1COC1 [Compound 239]
32 | < 50 | < 50 | CC(C)(C)C=C(C#N)C(=O)Nc1ccc(N2CC(N3CCN(c4ccc5c(c4)-c4nc(N6C(=O)OC[C@H]6C(F)F)cn4CCO5)CC3)C2)nc1 [Compound 241]
33 | < 50 | < 50 | CC(C)(N)C=C(C#N)C(=O)Nc1ccc(N2CC(N3CCN(c4ccc5c(c4)-c4nc(N6C(=O)OC[C@H]6C(F)F)cn4CCO5)CC3)C2)nc1 [Compound 242]
34 | < 50 | < 50 | CNC(C)(C)C=C(C#N)C(=O)Nc1ccc(N2CC(N3CCN(c4ccc5c(c4)-c4nc(N6C(=O)OC[C@H]6C(F)F)cn4CCO5)CC3)C2)nc1 [Compound 243]
